Data reported in patent US20050233985A1, “Rsk inhibitors and therapeutic uses thereof” (priority 2003, published 2005).
“Also recorded” adds a separate entry of the source. Like-named read-outs stand apart in the source and are kept apart here.

What was measured:
parental NIH/3T3 cells = test: Proliferation of parental cells (CellTiter-Glo); type: cell-based; conditions: 50 μM, compared to vehicle
Procedure: (§1) Cells were treated with vehicle, 50 μM SL0101, or 50 μM PD 98059 (PD 98059 is a MEK-specific inhibitor). Proliferation was measured using Promega CellTiter-Glo™ Luminescent cell viability assay.
(§2) Cell Culture. For proliferation studies cells were seeded at 2500 to 5000 cells per well in 96 well tissue culture plates in the appropriate medium as described by American Type Culture Collection. After 24 hr, the medium was replaced with medium containing compound or vehicle as indicated. Cell viability was measured at indicated time points using CellTiter-Glo™ assay reagent (Promega) according to manufacturer's protocol. For in vivo inhibition studies, cells were seeded at 2.5×10^5 cells/well in 12 well cell culture clusters. After 24 hr, the cells were serum starved for 24 hr then incubated with compound or vehicle for 3 hr prior to a 30 min PDB stimulation. Cells were lysed as previously described (J. Biol. Chem. 273, 13317-13323 (1998)). The lysates were normalized for total protein, electrophoresed and immunoblotted. For cell imaging, Ha-Ras-transformed NIH/3T3 cells were seeded on LABTEK II chamber slides (Nalge) at a density of 1×10^4 cells/well. After 24 hr, fresh medium was added the indicated compounds or vehicle. Images were taken 48 hr after treatment at a magnification of 20×.

p70 S6K = molecular target: T1, p70 S6K (Homo sapiens, UniProt P23443); test: p70 S6K kinase ELISA; type: biochemical; conditions: purified compounds
T1 construct: purchased Upstate Biotechnology
T1 sequence (P23443 24-525): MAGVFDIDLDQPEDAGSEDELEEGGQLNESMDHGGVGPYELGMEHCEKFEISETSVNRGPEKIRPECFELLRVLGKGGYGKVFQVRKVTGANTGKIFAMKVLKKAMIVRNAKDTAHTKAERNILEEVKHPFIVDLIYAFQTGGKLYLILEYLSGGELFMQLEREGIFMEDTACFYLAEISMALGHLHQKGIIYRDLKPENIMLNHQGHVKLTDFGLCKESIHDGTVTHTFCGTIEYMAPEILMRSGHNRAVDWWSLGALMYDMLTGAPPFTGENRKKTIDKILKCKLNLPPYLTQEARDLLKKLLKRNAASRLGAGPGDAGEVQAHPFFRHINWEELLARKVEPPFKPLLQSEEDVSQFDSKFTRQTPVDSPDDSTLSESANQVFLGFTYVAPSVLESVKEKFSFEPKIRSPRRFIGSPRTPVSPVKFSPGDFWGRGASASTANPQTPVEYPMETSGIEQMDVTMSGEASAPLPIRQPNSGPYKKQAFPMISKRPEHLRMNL
Procedure: (§3) Kinase Assays. Glutathione-S-transferase (GST)-fusion protein (1 g) containing the sequence -[…] (SEQ ID NO: 3, for serine/threonine kinase assays) or -[…] (SEQ ID NO: 4, for tyrosine kinase assays) was adsorbed in the wells of LumiNunc 96-well polystyrene plates (MaxiSorp surface treatment). The wells were blocked with sterile 3% tryptone in phosphate buffered saline and stored at 4° C. for up to 6 months. Kinase (5 nM) in 70 μl of kinase buffer (5 mM -glycerophosphate pH 7.4, 25 mM HEPES pH 7.4, 1.5 mM DTT, 30 mM MgCl2, 0.15 M NaCl) was dispensed into each well. Compound at indicated concentrations or vehicle was added, and reactions were initiated by the addition of 30 μl of ATP for a final ATP concentration of 10 μM unless indicated otherwise. Reactions were terminated after 10 to 45 min by addition of 75 μl of 500 mM EDTA, pH 7.5. All assays measured the initial velocity of reaction. After extensive washing of wells, polyclonal phosphospecific antibody developed against the phosphopeptide and HRP-conjugated anti-rabbit antibody (211-035-109, Jackson ImmunoResearch Laboratories) were used to detect serine phosphorylation of the substrate. HRP-conjugated anti-phospho-tyrosine antibody (RC20, BD Transduction Laboratories) was used for phospho-tyrosine detection. His-tagged active Rsk and FAK were expressed in Sf9 cells and purified using NiNTA resin (Qiagen). Baculovirus was prepared using the Bac-to-Bac® baculovirus expression system (Invitrogen). PKA was bacterially expressed and activated as described (Anal. Biochem. 245, 115-122 (1997)). Active Msk1 and p70 S6 kinase was purchased from Upstate Biotechnology. Immunoprecipitation and kinase assays were performed as previously described (Poteet-Smith et al., J. Biol. Chem, 274, 22135-22138 (1999) using the immobilized GST-fusion proteins and ELISAs as above.

MAPK, MEK, Raf and PKC = test: Upstream MAPK pathway kinases in PDB-stimulated cells (Rsk mobility shift, anti-active MAPK); type: cell-based, human
Procedure: Specific inhibition of Rsk in situ was determined by incubation of MCF-7 cells in the presence or absence of increasing concentrations of extract fraction enriched in SL0101 prior to stimulation of the MAPK pathway with phorbol dibutyrate (PDB). […] Thus, SL0101 is a Rsk-specific inhibitor in situ as well as in vitro and can be used as an investigative tool for defining the function of Rsk in situ.
(§4) Cells were treated with 500 nM PDB for 30 min prior to lysis. Protein concentration of lysates was measured and lysates were electrophoresed, transferred and immunoblotted.
as §2

Rsk1 = molecular target: T2, Rsk1 (Homo sapiens, UniProt Q15418); test: Kinase assay of immunoprecipitated HA-tagged Rsk1; type: biochemical; conditions: 2 μM
T2 construct: expressed in transfected cells; host or cells: BHK21, transiently transfected, EGF-stimulated; anti-HA immunoprecipitate
T2 sequence (Q15418 whole entry): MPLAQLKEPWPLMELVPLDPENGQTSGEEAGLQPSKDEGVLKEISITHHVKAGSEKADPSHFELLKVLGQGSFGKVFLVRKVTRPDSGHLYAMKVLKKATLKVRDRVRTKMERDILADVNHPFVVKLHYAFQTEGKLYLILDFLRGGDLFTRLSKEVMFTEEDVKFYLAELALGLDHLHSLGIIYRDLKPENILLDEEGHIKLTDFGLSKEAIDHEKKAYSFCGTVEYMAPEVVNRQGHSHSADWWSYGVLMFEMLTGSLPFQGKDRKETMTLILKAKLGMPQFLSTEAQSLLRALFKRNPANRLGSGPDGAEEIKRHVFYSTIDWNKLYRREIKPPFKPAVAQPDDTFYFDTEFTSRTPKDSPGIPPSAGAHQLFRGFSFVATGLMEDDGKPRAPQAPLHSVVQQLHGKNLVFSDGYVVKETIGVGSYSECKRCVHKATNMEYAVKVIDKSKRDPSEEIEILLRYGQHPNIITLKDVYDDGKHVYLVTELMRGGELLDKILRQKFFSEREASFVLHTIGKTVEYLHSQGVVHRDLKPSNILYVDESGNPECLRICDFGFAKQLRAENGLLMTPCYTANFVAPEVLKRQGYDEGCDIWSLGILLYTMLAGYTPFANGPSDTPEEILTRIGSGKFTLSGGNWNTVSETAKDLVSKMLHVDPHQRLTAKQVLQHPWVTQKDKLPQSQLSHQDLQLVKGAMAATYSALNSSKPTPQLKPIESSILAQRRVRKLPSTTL
Excerpt: (§5) To determine whether the unique adenosine-interacting loop is sufficient for SL0101-1 specificity, the isozyme specificity of SL0101-1 was examined. The primary structure of the NTKDs of the Rsk isoforms 1-3 are highly related, sharing 87% identity and each contain the unique adenosine-interacting loop. HA-tagged proteins were immunoprecipitated from the lysates of EGF-stimulated BHK21 cells transiently transfected with the indicated HA-tagged constructs (Rsk1, Rsk2 and Rsk3). Assays were performed as described immediately above.
(§6) Kinase Assays. Glutathione-S-transferase (GST)-fusion protein (1 g) containing the sequence -[…] (SEQ ID NO: 3, for serine/threonine kinase assays) or -[…] (SEQ ID NO: 4, for tyrosine kinase assays) was adsorbed in the wells of LumiNunc 96-well polystyrene plates (MaxiSorp surface treatment). The wells were blocked with sterile 3% tryptone in phosphate buffered saline and stored at 4° C. for up to 6 months. Kinase (5 nM) in 70 μl of kinase buffer (5 mM -glycerophosphate pH 7.4, 25 mM HEPES pH 7.4, 1.5 mM DTT, 30 mM MgCl2, 0.15 M NaCl) was dispensed into each well. Compound at indicated concentrations or vehicle was added, and reactions were initiated by the addition of 30 μl of ATP for a final ATP concentration of 10 μM unless indicated otherwise. […] All assays measured the initial velocity of reaction. […]

MCF-7 cells = type: cell-based
Procedure: (§7) Cell viability was measured at indicated time points. Proliferation assays were conducted using CellTiter-Glo Luminescent Cell Viability Assay (Promega), performed 44 hrs after treatment for FIGS. 8A &B and at indicated points for FIG. 8C. The data are expressed relative to time 0.
as §2

LNCaP cells = test: Proliferation of LNCaP cells (CellTiter-Glo); type: cell-based, human; conditions: 50 μM, 44 hrs after treatment
Procedure: as §7, §2

Rsk2 [1] = molecular target: Rsk2 (Homo sapiens, UniProt P51812); test: Kinase assay of immunoprecipitated HA-tagged Rsk2 from EGF-stimulated BHK21 cells; type: biochemical; conditions: 2 μM
Chain of Rsk2 (Homo sapiens, UniProt P51812) (P51812 whole entry): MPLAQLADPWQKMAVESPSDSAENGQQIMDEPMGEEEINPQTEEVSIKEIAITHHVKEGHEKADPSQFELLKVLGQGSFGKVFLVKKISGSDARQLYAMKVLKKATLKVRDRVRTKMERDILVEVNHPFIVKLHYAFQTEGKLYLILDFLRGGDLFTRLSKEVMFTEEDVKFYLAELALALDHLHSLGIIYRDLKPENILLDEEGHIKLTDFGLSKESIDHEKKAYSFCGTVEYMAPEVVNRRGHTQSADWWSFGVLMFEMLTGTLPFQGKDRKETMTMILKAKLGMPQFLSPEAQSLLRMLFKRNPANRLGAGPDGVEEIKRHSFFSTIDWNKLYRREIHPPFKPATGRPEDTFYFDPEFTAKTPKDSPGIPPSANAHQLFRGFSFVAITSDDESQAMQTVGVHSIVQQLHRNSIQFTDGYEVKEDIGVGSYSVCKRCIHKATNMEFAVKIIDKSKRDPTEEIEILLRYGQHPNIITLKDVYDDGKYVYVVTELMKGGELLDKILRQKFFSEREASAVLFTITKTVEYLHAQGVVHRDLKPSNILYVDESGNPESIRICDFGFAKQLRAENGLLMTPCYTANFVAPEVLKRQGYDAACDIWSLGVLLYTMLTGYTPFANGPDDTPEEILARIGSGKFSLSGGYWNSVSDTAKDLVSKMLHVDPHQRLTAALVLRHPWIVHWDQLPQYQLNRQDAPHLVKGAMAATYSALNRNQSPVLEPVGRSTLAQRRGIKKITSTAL

[2] = tested on: p140 phosphorylation in MCF-10A cells; test: PDB-induced p140 phosphorylation in MCF-10A cells (immunoblot); type: cell-based; conditions: 3 hr pre-incubation, 500 nM PDB 30 min
Procedure: as §4, §2

protein kinase A (PKA) = molecular target: T3, protein kinase A (PKA) (Homo sapiens, UniProt P17612); test: PKA kinase ELISA; type: biochemical; conditions: purified compounds
T3 construct: made in house; host or cells: bacteria
Procedure: as §3

Msk1 = molecular target: T4, Msk1 (Homo sapiens, UniProt O75582); test: Msk1 kinase ELISA; type: biochemical; conditions: purified compounds
T4 construct: purchased Upstate Biotechnology
T4 sequence (O75582 whole entry, species assumed): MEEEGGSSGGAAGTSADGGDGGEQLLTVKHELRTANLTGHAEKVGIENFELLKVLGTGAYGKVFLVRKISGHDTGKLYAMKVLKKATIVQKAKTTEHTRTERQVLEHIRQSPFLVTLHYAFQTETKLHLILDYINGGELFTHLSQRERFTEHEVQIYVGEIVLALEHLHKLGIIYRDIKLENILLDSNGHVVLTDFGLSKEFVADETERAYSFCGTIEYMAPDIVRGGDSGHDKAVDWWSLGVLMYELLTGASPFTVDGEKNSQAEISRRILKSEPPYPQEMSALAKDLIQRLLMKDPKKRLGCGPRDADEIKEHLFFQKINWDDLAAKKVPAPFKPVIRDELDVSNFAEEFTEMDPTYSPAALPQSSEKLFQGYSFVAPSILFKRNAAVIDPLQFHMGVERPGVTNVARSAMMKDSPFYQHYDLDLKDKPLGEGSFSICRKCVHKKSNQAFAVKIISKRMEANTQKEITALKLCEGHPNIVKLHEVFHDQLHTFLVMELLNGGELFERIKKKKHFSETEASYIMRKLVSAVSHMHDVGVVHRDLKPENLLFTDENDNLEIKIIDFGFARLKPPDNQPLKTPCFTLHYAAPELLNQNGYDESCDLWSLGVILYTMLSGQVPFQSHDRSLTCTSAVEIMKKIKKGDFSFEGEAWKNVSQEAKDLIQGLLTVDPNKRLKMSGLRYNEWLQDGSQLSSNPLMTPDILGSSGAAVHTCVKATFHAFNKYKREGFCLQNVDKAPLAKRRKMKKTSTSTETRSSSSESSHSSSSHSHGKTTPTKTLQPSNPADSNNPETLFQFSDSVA
Procedure: as §3

[3] = tested on: p140 phosphorylation in LNCaP cells; test: p140 phosphorylation in LNCaP line (anti-RPM antibody); type: cell-based, human; conditions: efficacy paralleled inhibition of LNCaP proliferation
Procedure: The ability of SL1011-1 to inhibit the proliferation of the androgen-dependent human prostate line, LNCaP was tested. […] To investigate the Rsk signal transduction pathway in the LNCaP line, a phosphospecific antibody to a Rsk phosphorylation motif (RPM) was produced. Only a few downstream effectors of Rsk have been identified and therefore, applicants anticipated that an anti-RPM antibody would be a very effective tool for identifying novel Rsk substrates in vivo. An anti-RPM antibody has previously been reported that recognizes the Rsk substrate, p140, a protein of unknown function. […] All lysates were normalized to each other using an anti-Ran antibody. Ran is used for normalization based on the observations that it is a general housekeeping protein, the activity or expression levels of which are not known to vary in any disease state.

Rsk2 [4] = molecular target: T5, Rsk2 (Homo sapiens, UniProt P51812, Y707A); test: Rsk kinase ELISA with immobilized substrate and phosphospecific antibodies; type: biochemical
T5 construct: His; made in house; host or cells: Sf9 (baculovirus, Bac-to-Bac)
T5 sequence (P51812 whole entry Y707A): as the sequence (P51812 whole entry) above, with Y707A counted along it

Rsk2(1-389) = molecular target: T6, Rsk2(1-389) (Homo sapiens, UniProt P51812); test: Kinase assay of immunoprecipitated HA-tagged Rsk2 amino-terminal kinase domain; type: biochemical; conditions: 2 μM
T6 construct: a truncation mutant of Rsk2 containing only the NTKD (Rsk2(1-389)); expressed in transfected cells; host or cells: BHK21, EGF-stimulated; anti-HA immunoprecipitate
T6 sequence (P51812 1-389): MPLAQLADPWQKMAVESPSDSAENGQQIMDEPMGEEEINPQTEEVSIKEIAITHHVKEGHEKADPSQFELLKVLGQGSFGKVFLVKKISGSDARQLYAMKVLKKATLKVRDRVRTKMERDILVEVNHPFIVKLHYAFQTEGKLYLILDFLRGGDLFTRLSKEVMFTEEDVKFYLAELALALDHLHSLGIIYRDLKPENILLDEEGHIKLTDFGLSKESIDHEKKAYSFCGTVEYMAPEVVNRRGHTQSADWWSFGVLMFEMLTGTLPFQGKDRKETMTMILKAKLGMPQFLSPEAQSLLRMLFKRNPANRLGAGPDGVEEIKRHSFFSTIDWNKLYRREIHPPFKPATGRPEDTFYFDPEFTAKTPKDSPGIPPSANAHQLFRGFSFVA

[5] = tested on: Ha-ras-transformed NIH/3T3 cells; test: Proliferation of transformed cells (CellTiter-Glo); type: cell-based
Procedure: as §1, §2

MCF-10A cells = test: Proliferation of MCF-10A cells (CellTiter-Glo); type: cell-based
Procedure: as §7, §2

Rsk3 = molecular target: T7, Rsk3 (Homo sapiens, UniProt Q15349); test: Kinase assay of immunoprecipitated HA-tagged Rsk3; type: biochemical; conditions: 2 μM
T7 construct: expressed in transfected cells; host or cells: BHK21, transiently transfected, EGF-stimulated; anti-HA immunoprecipitate
T7 sequence (Q15349 whole entry): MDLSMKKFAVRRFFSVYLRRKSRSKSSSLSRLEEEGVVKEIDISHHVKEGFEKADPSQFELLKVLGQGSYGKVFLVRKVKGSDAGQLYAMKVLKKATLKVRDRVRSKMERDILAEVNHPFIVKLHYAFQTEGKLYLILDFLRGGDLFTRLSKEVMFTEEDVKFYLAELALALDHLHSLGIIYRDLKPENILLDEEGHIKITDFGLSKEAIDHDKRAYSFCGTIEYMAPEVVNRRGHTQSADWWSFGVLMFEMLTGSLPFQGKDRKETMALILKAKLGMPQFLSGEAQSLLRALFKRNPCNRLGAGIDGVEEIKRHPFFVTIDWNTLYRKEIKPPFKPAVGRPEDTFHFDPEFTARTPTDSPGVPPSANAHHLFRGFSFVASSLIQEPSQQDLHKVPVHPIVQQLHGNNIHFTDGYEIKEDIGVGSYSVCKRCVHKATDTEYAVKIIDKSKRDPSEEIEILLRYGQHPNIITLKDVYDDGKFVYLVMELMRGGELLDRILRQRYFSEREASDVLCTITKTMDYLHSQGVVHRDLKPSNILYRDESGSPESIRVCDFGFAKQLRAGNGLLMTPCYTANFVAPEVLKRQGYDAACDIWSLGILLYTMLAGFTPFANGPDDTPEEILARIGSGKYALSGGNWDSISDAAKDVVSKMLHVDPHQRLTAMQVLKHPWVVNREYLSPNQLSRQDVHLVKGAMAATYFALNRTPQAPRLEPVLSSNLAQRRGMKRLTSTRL
Excerpt: as §5, §6

[6] = molecular target: T8, Focal Adhesion Kinase (FAK) (Homo sapiens, UniProt Q05397); test: FAK tyrosine kinase ELISA; type: biochemical; conditions: purified compounds
T8 construct: the catalytic domain of the tyrosine kinase, Focal Adhesion Kinase (FAK); His; made in house; host or cells: Sf9 (baculovirus, Bac-to-Bac)
T8 sequence (Q05397 422-680 limits assumed, species assumed): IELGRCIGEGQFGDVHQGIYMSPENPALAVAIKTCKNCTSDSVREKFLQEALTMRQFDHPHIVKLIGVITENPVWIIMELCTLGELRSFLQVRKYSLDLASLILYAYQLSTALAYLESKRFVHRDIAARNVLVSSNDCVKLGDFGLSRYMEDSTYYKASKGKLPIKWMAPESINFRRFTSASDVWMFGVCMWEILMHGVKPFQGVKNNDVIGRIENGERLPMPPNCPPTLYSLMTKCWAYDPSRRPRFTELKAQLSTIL

[7] = tested on: p140 phosphorylation in MCF-7 cells; test: PDB-induced p140 phosphorylation in MCF-7 cells (immunoblot); type: cell-based, human; conditions: 3 hr pre-incubation, 500 nM PDB 30 min
Procedure: as §4, §2

[8] = in vitro, increasing concentrations of compound, read-out: IC50 for Rsk catalytic activity

## CC(=O)OC1C(C)OC(Oc2c(-c3ccc(O)cc3)oc3cc(O)cc(O)c3c2=O)C(O)C1OC(C)=O [SL0101-1, kaempferol 3-α-L-(3″,4″-diacetyl) rhamnopyranoside]
Parental NIH/3T3 cells
  proliferation of parental NIH/3T3 cells: little effect; also recorded: little influence; also recorded: not the parental cells
p70 S6K
  inhibition of p70 S6 kinase: do not inhibit
MAPK, MEK, Raf and PKC
  activation of MAPK (anti-active MAPK antibody): does not effect
  inhibition of upstream kinases PKC, Raf, MEK, MAPK in cells: does not inhibit
  phosphorylation of Rsk by MAPK (reduced electrophoretic mobility): does not effect
Rsk1
  Rsk1 activity: potently reduced
MCF-7 cells; 50 μM
  cell death of MCF-7 cells: did not cause cell death
MCF-7 cells; 50 μM in serum-free medium (serum deprivation)
  MCF-7 cell viability compared to vehicle control: significantly reduced cell viability
MCF-7 cells; 50 μM, 44 hrs after treatment
  proliferation of MCF-7 cells: inhibited proliferation; also recorded: inhibits the proliferation
LNCaP cells
  proliferation of LNCaP cells: completely inhibit
Rsk2 [1]
  Rsk2 activity: potently reduced
[2]
  PDB-induced p140 phosphorylation in MCF-10A cells: prevented
Protein kinase A (PKA)
  inhibition of Protein Kinase A: do not inhibit
Msk1
  inhibition of MSK: do not inhibit
[3]
  phosphorylation of p140: decrease the phosphorylation
Rsk2 [4]; 5 μM inhibitor, 5 nM purified kinases, 30 mins, 10 μM ATP
  specificity for Rsk compared to p70 S6K and Msk1: specific for inhibition of Rsk activity; also recorded: specifically inhibits
Rsk2 [4]; with respect to ATP
  mechanism of Rsk inhibition: competitive with respect to ATP
Rsk2(1-389)
  inhibition of isolated Rsk2 NTKD: potently inhibited; also recorded: inhibits activity
[5]; 50 μM for 48 hr, then medium replaced, viability 48 hr later
  reversibility of inhibition of cell proliferation (washout): resulted in growth of the transformed cells; also recorded: reversible
[5]; 50 μM, 48 hour time course, 10% fetal calf serum
  proliferation of Ha-ras-transformed NIH/3T3 cells: decreased the growth rate; also recorded: halts proliferation; also recorded: inhibits; also recorded: inhibited the proliferation
[5]; Ha-Ras transformed and parental NIH/3T3 cells
  toxicity to intact cells: not toxic
[5]; images 48 hr after treatment
  morphology of transformed cells: striking morphology changes
MCF-10A cells; 50 μM, 44 hrs after treatment
  growth of MCF-10A cells: no effect; also recorded: without preventing the proliferation
Rsk3
  Rsk3 activity: only partially inhibited
[6]
  inhibition of FAK: do not inhibit
[7]; 100 μM
  PDB-induced p140 phosphorylation: abrogates

## O=c1c(O)c(-c2ccc(O)cc2)oc2cc(O)cc(O)c12 [kaempferol, reference compound]
MCF-7 cells; concentration not given, same extent as MCF-10A
  growth of MCF-7 cells: slows growth
Rsk2 [4]; in vitro kinase assay with immobilized substrate, read-out: IC50 for Rsk
  IC50: 15000 nM
MCF-10A cells; concentration not given, same extent as MCF-7
  growth of MCF-10A cells: slows growth

## CC(=O)OC1C(C)OC(Oc2c(-c3ccc(O)cc3)oc3cc(O)cc(O)c3c2=O)C(O)C1O [SL0101-3, kaempferol-3-α-L-(4″-acetyl) rhamnopyranoside]
p70 S6K
  inhibition of p70 S6 kinase: do not inhibit
Protein kinase A (PKA)
  inhibition of Protein Kinase A: do not inhibit
Msk1
  inhibition of MSK: do not inhibit
Rsk2 [4]; [8]
  IC50: 190 nM
[6]
  inhibition of FAK: do not inhibit

## CC(=O)OC1C(C)OC(Oc2c(-c3ccc(O)cc3)oc3cc(O)cc(O)c3c2=O)C(OC(C)=O)C1O [SL0101-2, kaempferol 3-α-L-(2″,4″-diacetyl) rhamnopyranoside]
p70 S6K
  inhibition of p70 S6 kinase: do not inhibit
Protein kinase A (PKA)
  inhibition of Protein Kinase A: do not inhibit
Msk1
  inhibition of MSK: do not inhibit
Rsk2 [4]; [8]
  IC50: 580 nM
[6]
  inhibition of FAK: do not inhibit

## Cn1cc(C2=C(c3cn(CCCSC(=N)N)c4ccccc34)C(=O)NC2=O)c2ccccc21 [Ro 318220, reference compound]
MCF-7 cells; 500 nM
  proliferation of MCF-7 cells: attenuated proliferation
MCF-10A cells; 500 nM
  proliferation of MCF-10A cells: attenuated proliferation

## COc1cccc(-c2cc(=O)c3ccccc3o2)c1N [PD 98059, reference compound]
[5]; 50 μM PD 98059, Ha-ras-transformed or parental NIH/3T3 cells
  influence on the proliferation rate: observed only when cells were incubated in the presence of low concentrations of fetal calf serum

## N#CC(=C(/N)Sc1ccccc1N)/C(C#N)=C(\N)Sc1ccccc1N [U0126, reference compound]
MCF-7 cells; 50 μM, 44 hrs after treatment
  proliferation of MCF-7 cells: halted proliferation
MCF-10A cells; 50 μM, 44 hrs after treatment
  growth of MCF-10A cells: halted proliferation
[7]; 50 μM
  PDB-induced p140 phosphorylation: abrogates
